Patent US20170296570A1, “High Drug Load Tablets Comprising Sofosbuvir” (Sandoz AG, priority 2014, published 2017)

What was measured:
[1] = 40° C., relative humidity 75%; cited from earlier work
[2] = Determination of the moisture stability of polymorphic forms of sofosbuvir and amorphous sofosbuvir (humidity chamber, XRPD before and after); format: physicochemical; details: for XRPD analysis, sample after storage at 40° C./75% RH for 18 h / Visual aspect, sample after storage at 40° C./75% RH for 18 h: after 18 h at 40° C./75% RH in humidity chamber; for Visual aspect, sample after storage at 40° C./75% RH for 18 h: footnote: gel/gum = sample deliquesced; for Visual aspect, sample before storage at 40° C./75% RH / XRPD analysis, sample before storage at 40° C./75% RH: 30 mg sample
Method: Even more precisely, the moisture stability of the polymorphic form is defined as the amount in mg of the polymorphic form which is present after an exposure of an amount of 30 mg of the polymorphic form to a relative humidity of (75±1) % at a temperature of (40±1)° C. for an exposure time of (18±1) hours in a humidity chamber, relative to the amount of 30 mg of the polymorphic form before said exposure, as determined via X-ray powder diffraction pattern analysis at a temperature in the range of from 15 to 25° C. with Cu-Kalpha1,2 radiation having a wavelength of 0.15419 nm of the polymorphic form before the exposure and via said X-ray powder diffraction pattern analysis after the exposure.
30 mg of a given polymorphic form of sofosbuvir or of amorphous sofosbuvir prepared according to Reference Examples 1 to 4 were analyzed via XRPD as described in Reference Example 6. Then, these polymorphic forms of sofosbuvir or of amorphous sofosbuvir were exposed to an atmosphere having a relative humidity (RH) of 75% and a temperature of 40° C. for 18 hours in a humidity chamber and analyzed via XRPD as described in Reference Example 6.
XRPD patterns were obtained with an X'Pert PRO diffractometer (PANalytical, Almelo, The Netherlands) equipped with a theta/theta coupled goniometer in transmission geometry, pro-grammable XYZ stage with well plate holder, Cu-Kalpha1,2 radiation source (wavelength 0.15419 nm) with a focusing mirror, a 0.5° divergence slit, a 0.02° soller slit collimator and a 0.5° anti-scattering slit on the incident beam side, a 2 mm anti-scattering slit, a 0.02° soller slit collimator, a Ni-filter and a solid state PIXcel detector on the diffracted beam side. The diffractogram was recorded at room temperature at a tube voltage of 40 kV, tube current of 40 mA, applying a stepsize of 0.013° 2-theta with 40 sec per step in the angular range of 2° to 40° 2-theta. A typical precision of the 2-theta values is in the range of ±0.2° 2-theta. Thus, a diffraction peak that appears for example at 9.4° 2-theta can appear between 9.2 and 9.6° 2-theta on most X-ray diffractometers under standard conditions.

SMILES | behaviour under stress conditions (deliquescence) [1] | XRPD analysis, sample after storage at 40° C./75% RH for 18 h [2] | Visual aspect, sample after storage at 40° C./75% RH for 18 h [2] | Visual aspect, sample before storage at 40° C./75% RH [2] | XRPD analysis, sample before storage at 40° C./75% RH [2]
CC(C)OC(=O)[C@H](C)N[P@](=O)(OC[C@H]1O[C@@H](n2ccc(=O)[nH]c2=O)[C@](C)(F)[C@@H]1O)Oc1ccccc1 [sofosbuvir, (S)-isopropyl 2-(((S)-(((2R,3R,4R,5R)-5-(2,4-dioxo-3,4-dihydropyrimidin-1(2H)-yl)-4-fluoro-3-hydroxy-4-methyltetrahydrofuran-2-yl)methoxy)(phenoxy)phosphoryl)-amino)propanoate] | deliquesces after a few hours |  |  |  | 
CC(C)OC(=O)[C@H](C)N[P@](=O)(OC[C@H]1O[C@@H](n2ccc(=O)[nH]c2=O)[C@](C)(F)[C@@H]1O)Oc1ccccc1 [Form 1] |  | amorphous | gel/gum*^) | white powder | crystalline, Form 1
CC(C)OC(=O)[C@H](C)N[P@](=O)(OC[C@H]1O[C@@H](n2ccc(=O)[nH]c2=O)[C@](C)(F)[C@@H]1O)Oc1ccccc1 [Form 7] |  | crystalline, Form 7 | white powder | white powder | crystalline, Form 7
CC(C)OC(=O)[C@H](C)N[P@](=O)(OC[C@H]1O[C@@H](n2ccc(=O)[nH]c2=O)[C@](C)(F)[C@@H]1O)Oc1ccccc1 [Amorphous] |  | amorphous | gel/gum*^) | white powder | amorphous
CC(C)OC(=O)[C@H](C)N[P@](=O)(OC[C@H]1O[C@@H](n2ccc(=O)[nH]c2=O)[C@](C)(F)[C@@H]1O)Oc1ccccc1 [Form 6] |  | crystalline, Form 6 | white powder | white powder | crystalline, Form 6
